Test results published in patent US11590150B2, “Pharmaceutical composition for preventing or treating adverse drug reactions by statin” (INDUSTRY-ACADEMIC COOPERATION FOUNDATION, YONSEI UNIVERSITY, priority 2017, dated 2023).
Where two headings read alike, the source gives them in different places.

Experiments:
C57BL6/J mice = assay type: in vivo, mouse; details: for therapeutic effect on kidney damage (H & E, PAS): mevalonate 30 mg/kg i.p. 4 days
Procedure: (§1) In order to examine whether administration of an isoprenoid-based compound reduces statin-induced adverse effects even in vivo, 100 mg of statin (fluvastatin) was added to 1 kg of feed, and the mixture was fed to 8-week-old C57BL6/J mice for 14 days. Subsequently, mevalonate was administered intraperitoneally to the mice at a dose of 30 mg per kg of mouse body weight for 4 consecutive days, and then lipopolysaccharide (SIGMA) was administered intraperitoneally to mice at a lipopolysaccharide dose of 12 mg per kg of mouse body weight, thereby producing oxysterol in the mouse body. 72 hours after administration of the lipopolysaccharide, the mice were euthanized, and then kidney tissue was extracted by performing cardiac perfusion with 4% paraformaldehyde in DPBS (Dulbecco's phosphate-buffered saline). The extracted kidney tissue was subjected to H & E (Hematoxylin & Eosin) staining, PAS (periodic acid-Schiff) staining and immunohistochemistry of neutrophil gelatinase-associated lipocalin (NGAL) that is an early diagnostic marker of acute renal failure, thereby determining whether acute kidney damage and acute renal failure would occur. In addition, the concentrations of total cholesterol, high-density lipoprotein (HDL) and low-density lipoprotein (LDL) were measured.

[1] = tested on: neutrophil gelatinase-associated lipocalin (NGAL); experiment: Kidney NGAL immunohistochemistry in fluvastatin-fed mice given mevalonate and lipopolysaccharide (Example 6); assay type: in vivo, mouse; details: mevalonate 30 mg/kg i.p. 4 days
Procedure: as §1

[2] = Total cholesterol, HDL and LDL concentrations in mice (Example 6); assay type: in vivo, mouse; details: statin, oxysterol and mevalonate all administered
Procedure: as §1

[3] = tested on: human kidney tubule cell line HK-2; experiment: LDH assay of cell death in HK-2 cells treated with statin and/or oxysterol; assay type: cell-based; details: 1 μM zaragozic acid with 10 μg/mL 25-hydroxycholesterol
Procedure: To analyze the relationship between statins and oxysterols, the human kidney tubule cell line HK-2 (human kidney-2 cell line; ATCC CRL-2190™) was seeded into a 24-well plate at a density of 1×10^5 per well. […] Subsequently, the cells were cultured in an incubator at 37° C. under 5% CO2 for 72 hours, and then the degree of cell death in each well was analyzed using an LDH assay kit (Takara, Cat #. MK401).
In order to examine whether the same results appear even in the presence of various types of oxysteols, an experiment was performed in the same manner as Example 1.1. As statin, 5 μM of atorvastatin was used, and as oxysterols, 0.1 μg/mL of 25-hydroxycholesterol, 7-ketocholesterol, cholesterol 5,6-epoxide, 24-hydroxycholesterol and 27-hydroxycholesterol were used.
In order to examine whether isoprenoid-based compounds can reduce adverse effects which are induced by co-administration of oxysterol and statin, the cell line was treated with oxysterol (0.1 μg/mL of 25-hydroxycholestyerol) and statin (5 μM of atorvastatin) in the same manner as Example 1.1, and treated with 10 μM of farnesyl pyrophosphate, 200 μM of mevalonate or 10 μM of geranylgeranyl pyrophosphate, which is an isoprenoid-based compound.

## CC(O)(CCO)CC(=O)O (centres unmarked) [mevalonate]
C57BL6/J mice; group with statin and oxysterol co-administered
  therapeutic effect on kidney damage (H & E, PAS): exhibited a significant effect
C57BL6/J mice; kidney damage caused by oxysterol formation, no statin
  therapeutic effect on kidney damage (H & E, PAS): showed no therapeutic effect
C57BL6/J mice; statin, oxysterol and mevalonate all administered
  damage to kidney tissue: kidney tissue was not damaged
[1]; oxysterol generation induced after administration of statin
  expression of NGAL: the expression of NGAL significantly decreased
[1]; oxysterol generation induced without statin
  therapeutic effect on expression of NGAL: showed no significant therapeutic effect
[2]
  concentration of low-density lipoprotein: decreased
  concentration of total cholesterol: decreased

## C=C(CC[C@]12O[C@H](C(=O)O)[C@@](O)(C(=O)O)[C@](C(=O)O)(O1)[C@H](OC(=O)/C=C/[C@@H](C)C[C@@H](C)CC)[C@H]2O)[C@@H](OC(C)=O)[C@H](C)Cc1ccccc1 [zaragozic acid]
[3]
  adverse effects / viability of the cells: the adverse effects were reduced to some degrees, and thus the viability of the cells increased
